# Results reported in US9174964B2, “AMPK-activating piperidinyloxy-substituted 2,3-dihydro-1H-indene-1-amine compounds and pharmaceutical compositions including the same” (Rigel Pharmaceuticals, Inc., priority 2007, dated 2015).
# pEC50: −log10 of the molar value. Where a name gives a salt, the structure may show the parent alone.
# Molecular target: AMPK
# Experiment: AMPK activation, enzyme-linked immunosorbent assay
# Format: biochemical
# Conditions: Table 2, AMPK activation, ELISA
row,pEC50,SMILES
1,6.30 to 7.00,"O=C(N[C@@H]1CCN(Cc2ccncc2)C1)c1ccc(OC2CCN(c3ccc(C(F)(F)F)cc3)CC2)cn1 [Compound 25, (R)-N-(1-(pyridin-4-ylmethyl)pyrrolidin-3-yl)-5-(1-(4-(trifluoromethyl)phenyl)piperidin-4-yloxy)picolinamide]"
2,> 7.00,"COC(=O)c1ccc(CN2CCC(NC(=O)c3ccc(OC4CCN(c5ccc(C#N)cc5)CC4)cn3)CC2)cc1 [Compound 7, methyl 4-((4-(5-(1-(4-cyanophenyl)piperidin-4-yloxy)picolinamido)piperidin-1-yl)methyl)benzoate]"
3,6.00 to 6.30,"N#Cc1ccc(CN2CC[C@@H](NC(=O)c3ccc(OC4CCN(c5ccc(C(F)(F)F)cc5)CC4)cn3)C2)cc1 [Compound 33, (R)-N-(1-(4-cyanobenzyl)pyrrolidin-3-yl)-5-(1-(4-(trifluoromethyl)phenyl)piperidin-4-yloxy)picolinamide]"
4,> 7.00,"N#Cc1ccc(CN2CCC(NC(=O)c3cc(OC4CCN(c5ccc(C(F)(F)F)cc5)CC4)ccn3)CC2)cc1 [Compound 28, N-(1-(4-cyanobenzyl)piperidin-4-yl)-4-(1-(4-(trifluoromethyl)phenyl)piperidin-4-yloxy)picolinamide]"
5,> 7.00,"O=C(NC1CCN(Cc2ccncc2)CC1)c1ccc(OC2CCN(c3ccc(C(F)(F)F)cc3)CC2)nc1 [Compound 10, N-(1-(pyridin-4-ylmethyl)piperidin-4-yl)-6-(1-(4-(trifluoromethyl)phenyl)piperidin-4-yloxy)nicotinamide]"
6,6.30 to 7.00,"CN(C)c1ccc(CN2CCC(NC(=O)c3ccc(OC4CCN(c5ccc(C(F)(F)F)cc5)CC4)cn3)CC2)cc1 [Compound 39, N-(1-(4-(dimethylamino)benzyl)piperidin-4-yl)-5-(1-(4-(trifluoromethyl)phenyl)piperidin-4-yloxy)picolinamide]"
7,5.30 to 6.00,"CC(C)(C)OC(=O)N1CCC(NC(=O)c2ccnc(OC3CCN(c4ccc(C(F)(F)F)cc4)CC3)c2)CC1 [Compound 15, tert-butyl 4-(2-(1-(4-(trifluoromethyl)phenyl)piperidin-4-yloxy)isonicotinamido) piperidine-1-carboxylate]"
8,6.00 to 6.30,"CC(C)(C)OC(=O)N1CCC(NC(=O)c2cc(OC3CCN(c4ccc(C(F)(F)F)cc4)CC3)ccn2)CC1 [Compound 12, tert-butyl 4-(4-(1-(4-(trifluoromethyl)phenyl)piperidin-4-yloxy)picolinamido) piperidine-1-carboxylate]"
9,6.30 to 7.00,"N#Cc1ccc(CN2CC(NC(=O)c3ccc(OC4CCN(c5ccc(C(F)(F)F)cc5)CC4)cn3)C2)cc1 [Compound 41, N-(1-(4-cyanobenzyl)azetidin-3-yl)-5-(1-(4-(trifluoromethyl)phenyl)piperidin-4-yloxy)picolinamide]"
10,> 7.00,"N#Cc1ccc(CN2CCC(NC(=O)c3cncc(OC4CCN(c5ccc(C(F)(F)F)cc5)CC4)c3)CC2)cc1 [Compound 17, N-(1-(4-cyanobenzyl)piperidin-4-yl)-5-(1-(4-(trifluoromethyl)phenyl)piperidin-4-yloxy)nicotinamide]"
11,6.30 to 7.00,"CC(C)(C)OC(=O)N1CC[C@H](NC(=O)c2ccc(OC3CCN(c4ccc(C(F)(F)F)cc4)CC3)cn2)C1 [Compound 26, (S)-tert-butyl 3-(5-(1-(4-(trifluoromethyl)phenyl)piperidin-4-yloxy)picolinamido) pyrrolidine-1-carboxylate]"
12,6.30 to 7.00,"O=C(N[C@H]1CCN(Cc2ccc(F)cc2)C1)c1ccc(OC2CCN(c3ccc(C(F)(F)F)cc3)CC2)cn1 [Compound 32, (S)-N-(1-(4-fluorobenzyl)pyrrolidin-3-yl)-5-(1-(4-(trifluoromethyl)phenyl)piperidin-4-yloxy)picolinamide]"
13,> 7.00,"N#Cc1ccc(CN2CCC(NC(=O)c3ccc(OC4CCN(c5ccc(C(F)(F)F)cc5)CC4)cn3)CC2)cc1 [Compound 4, N-(1-(4-cyanobenzyl)piperidin-4-yl)-5-(1-(4-(trifluoromethyl)phenyl)piperidin-4-yloxy)picolinamide]"
14,> 7.00,"O=C(NC1CCN(Cc2ccc(F)cc2)CC1)c1ccc(OC2CCN(c3ccc(C(F)(F)F)cc3)CC2)nc1 [Compound 11, N-(1-(4-fluorobenzyl)piperidin-4-yl)-6-(1-(4-(trifluoromethyl)phenyl)piperidin-4-yloxy)nicotinamide]"

# Same assay, conditions: Table 3, AMPK activation, ELISA
row,pEC50,SMILES
1,> 7.00,"O=S(=O)(NC1CCN(Cc2ccc(C(F)(F)F)cc2)CC1)c1ccc(OC2CCN(c3ccc(C(F)(F)F)cc3)CC2)nc1 [Compound 58, N-(1-(4-(trifluoromethyl)benzyl)piperidin-4-yl)-6-(1-(4-(trifluoromethyl)phenyl)piperidin-4-yloxy)pyridine-3-sulfonamide]"
2,4.30 to 5.30,"N#Cc1ccc(CN2CCC(NS(=O)(=O)c3ccc(OC4CCN(c5ccc(C(F)(F)F)cc5)CC4)nc3)CC2)cc1 [Compound 56, N-(1-(4-cyanobenzyl)piperidin-4-yl)-6-(1-(4-(trifluoromethyl)phenyl)piperidin-4-yloxy)pyridine-3-sulfonamide]"
3,< 4.30,"O=C(c1ccc(F)cc1)N1CCC(NS(=O)(=O)c2ccc(OC3CCN(c4ccc(C(F)(F)F)cc4)CC3)nc2)CC1 [Compound 60, N-(1-(4-fluorobenzoyl)piperidin-4-yl)-6-(1-(4-(trifluoromethyl)phenyl)piperidin-4-yloxy)pyridine-3-sulfonamide]"

# Same assay, conditions: Table 4, AMPK activation, ELISA
row,pEC50,SMILES
1,> 7.00,"O=C(NC1CCN(Cc2cccnc2)CC1)c1cc2cc(OC3CCN(c4ccc(C(F)(F)F)cc4)CC3)ccc2o1 [Compound 101, N-(1-(pyridin-3-ylmethyl)piperidin-4-yl)-5-(1-(4-(trifluoromethyl)phenyl)piperidin-4-yloxy)benzofuran-2-carboxamide]"
2,< 4.30,"O=C(NC1CCNCC1)c1cc2cc(OC3CCN(c4ccc(C(F)(F)F)cc4)CC3)ccc2o1 [Compound 86, N-(piperidin-4-yl)-5-(1-(4-(trifluoromethyl)phenyl)piperidin-4-yloxy)benzofuran-2-carboxamide hydrochloride]"
3,> 7.00,"O=C(NC1CCN(Cc2ccccc2)CC1)c1cc2cc(OC3CCN(c4ccc(OC(F)(F)F)cc4)CC3)ccc2o1 [Compound 80, N-(1-benzylpiperidin-4-yl)-5-(1-(4-(trifluoromethoxy)phenyl)piperidin-4-yloxy)benzofuran-2-carboxamide trifluoroacetate salt]"
4,6.30 to 7.00,"O=C(NC1CCN(S(=O)(=O)c2cccnc2)CC1)c1cc2ccc(OC3CCN(c4ccc(OC(F)(F)F)cc4)CC3)cc2o1 [Compound 108, N-(1-(pyridin-3-ylsulfonyl)piperidin-4-yl)-6-(1-(4-(trifluoromethoxy)phenyl)piperidin-4-yloxy)benzofuran-2-carboxamide]"
5,> 7.00,"N#Cc1ccccc1CN1CCC(NC(=O)c2cc3ccc(OC4CCN(c5ccc(C(F)(F)F)cc5)CC4)cc3o2)CC1 [Compound 98, N-(1-(2-cyanobenzyl)piperidin-4-yl)-6-(1-(4-(trifluoromethyl)phenyl)piperidin-4-yloxy)benzofuran-2-carboxamide]"
6,> 7.00,"N#Cc1ccc(CN2CCC(Oc3ccc4oc(C(=O)NC5CCN(Cc6ccccc6)CC5)cc4c3)CC2)cc1 [Compound 70, N-(1-benzylpiperidin-4-yl)-5-(1-(4-cyanobenzyl)piperidin-4-yloxy)benzofuran-2-carboxamide]"
7,> 7.00,"Cc1c(C(=O)NC2CCN(Cc3cccnc3)CC2)oc2cc(OC3CCN(c4ccc(C(F)(F)F)cc4)CC3)ccc12 [Compound 69, 3-methyl-N-(1-(pyridin-3-ylmethyl)piperidin-4-yl)-6-(1-(4-(trifluoromethyl)phenyl)piperidin-4-yloxy)benzofuran-2-carboxamide]"
8,> 7.00,"O=C(NC1CCN(C(=O)c2ccncc2)CC1)c1cc2ccc(OC3CCN(c4ccc(C(F)(F)F)cc4)CC3)cc2o1 [Compound 112, N-(1-isonicotinoylpiperidin-4-yl)-6-(1-(4-(trifluoromethyl)phenyl)piperidin-4-yloxy)benzofuran-2-carboxamide]"
9,5.00 to 6.00,"CN(C(=O)c1cc2cc(OC3CCN(c4ccc(C(F)(F)F)cc4)CC3)ccc2o1)C1CCN(C(=O)OC(C)(C)C)CC1 [Compound 102, tert-butyl 4-(N-methyl-5-(1-(4-(trifluoromethyl)phenyl)piperidin-4-yloxy)benzofuran-2-carboxamido)piperidine-1-carboxylate]"
10,6.30 to 7.00,"NC(=O)c1ccc(CN2CCC(Oc3ccc4oc(C(=O)NC5CCN(Cc6ccccc6)CC5)cc4c3)CC2)cc1 [Compound 116, N-(1-benzylpiperidin-4-yl)-5-(1-(4-carbamoylbenzyl)piperidin-4-yloxy)benzofuran-2-carboxamide]"

# Same assay, conditions: Table 5, AMPK activation, ELISA
row,pEC50,SMILES
1,6.30 to 7.00,"N#Cc1ccccc1CN1CCC(NC(=O)c2cc3ccc(OC4CCN(c5ccc(C(F)(F)F)cc5)CC4)cc3s2)CC1 [Compound 146, N-(1-(2-cyanobenzyl)piperidin-4-yl)-6-(1-(4-(trifluoromethyl)phenyl)piperidin-4-yloxy)benzo[b]thiophene-2-carboxamide]"
2,6.00 to 6.30,"CC(C)(C)OC(=O)N1CCC(NC(=O)c2cc3ccc(OC4CCN(c5ccc(C(F)(F)F)cc5)CC4)cc3s2)CC1 [Compound 140, tert-butyl 4-(6-(1-(4-(trifluoromethyl)phenyl)piperidin-4-yloxy)benzo[b]thiophene-2-carboxamido)piperidine-1-carboxylate]"
3,> 7.00,"O=C(NC1CCN(C(=O)c2ccncc2)CC1)c1sc2cc(OC3CCN(c4ccc(C(F)(F)F)cc4)CC3)ccc2c1Cl [Compound 155, 3-chloro-N-(1-isonicotinoylpiperidin-4-yl)-6-(1-(4-(trifluoromethyl)phenyl)piperidin-4-yloxy)benzo[b]thiophene-2-carboxamide]"
4,6.30 to 7.00,"O=C(NC1CCN(Cc2ccccn2)CC1)c1sc2cc(OC3CCN(c4ccc(C(F)(F)F)cc4)CC3)ccc2c1Cl [Compound 153, 3-chloro-N-(1-(pyridin-2-ylmethyl)piperidin-4-yl)-6-(1-(4-(trifluoromethyl)phenyl)piperidin-4-yloxy)benzo[b]thiophene-2-carboxamide]"

# Same assay, conditions: Table 6, AMPK activation, ELISA
row,pEC50,SMILES
1,< 4.00,"FC(F)(F)c1ccc(N2CCC(Oc3ccc4c(c3)CCC4NC3CCNCC3)CC2)cc1 (centres unmarked) [Compound 157, N-(5-(1-(4-(trifluoromethyl)phenyl)piperidin-4-yloxy)-2,3-dihydro-1H-inden-1-yl)piperidin-4-amine]"
